Laboratory results published in US9023878B2 (Neurophyxia B.V., priority 2010, dated 2015).

Experiment: Physical stability of saturated 10% SBE-CD solutions, 5 days at 5° C. and RT; also: key: −: Precipitation of 2-IB; +: no precipitation
Type: physicochemical
Conditions: saturated solution

In the case of `N=C1N[C@H]2[C@H](CS[C@H]2CCCCC(=O)O)N1` [Formulation 2-IB, 2-iminobiotin], the “5 days at 5° C.” value (pH 4.0) is reported as “−”, the “5 days at RT” value (pH 4.0) is reported as “+” and the “5 days at 5° C.” value (pH 4.5) is reported as “−”. For the same compound, the “5 days at RT” value (pH 4.5) was “+”, the “5 days at 5° C.” value (pH 5.0) was “−” and the “5 days at RT” value (pH 5.0) was “+”. For the same compound, the “5 days at 5° C.” value (pH 5.1) was “−”, the “5 days at RT” value (pH 5.1) was “+” and the “5 days at 5° C.” value (pH 5.5) was “−”. The “5 days at RT” value (pH 5.5) was “+”, the “5 days at 5° C.” value (pH 6.2) was “−” and the “5 days at RT” value (pH 6.2) was “+”. The “5 days at 5° C.” value (pH 7.0) was “−” and the “5 days at RT” value (pH 7.0) was “+”.
